Measured values: ChEMBL document CHEMBL5442219

Columns and labels:
Details in all cases: Compound concentration 10 µM
[1] = molecular target: Sodium-dependent serotonin transporter (Homo sapiens) (UniProt P31645)
Description: PDSP Primary Binding target: SLC6A4 - Compounds are tested at 10 uM concentration, plate are incubated at room temperature in the dark for 90 minutes. Reaction are stopped by vacuum filtration onto 0.3% polyethyleneimine soaked filter mats using Filtermate harvester. Scintilation cocktail is then melted onto microwave-dried filters on a hot plate and the radio activity is counted in Microbia counter.

[2] = molecular target: T1, 5-hydroxytryptamine receptor 3A (Homo sapiens) (UniProt P46098)
T1 sequence (whole entry): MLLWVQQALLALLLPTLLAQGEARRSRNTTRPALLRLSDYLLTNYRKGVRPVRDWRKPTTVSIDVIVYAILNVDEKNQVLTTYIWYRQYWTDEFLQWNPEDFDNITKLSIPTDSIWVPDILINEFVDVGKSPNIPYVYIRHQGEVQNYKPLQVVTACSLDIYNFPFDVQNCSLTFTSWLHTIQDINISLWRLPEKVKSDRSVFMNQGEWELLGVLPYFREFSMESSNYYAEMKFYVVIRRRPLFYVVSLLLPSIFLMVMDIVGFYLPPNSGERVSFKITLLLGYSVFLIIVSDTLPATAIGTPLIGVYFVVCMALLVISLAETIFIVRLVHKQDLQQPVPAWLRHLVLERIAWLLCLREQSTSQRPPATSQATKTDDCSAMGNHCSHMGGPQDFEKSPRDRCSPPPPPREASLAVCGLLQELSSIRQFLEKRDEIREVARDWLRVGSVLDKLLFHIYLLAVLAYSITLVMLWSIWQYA
Description: PDSP Primary Binding target: HTR3A - Compounds are tested at 10 uM concentration, plate are incubated at room temperature in the dark for 90 minutes. Reaction are stopped by vacuum filtration onto 0.3% polyethyleneimine soaked filter mats using Filtermate harvester. Scintilation cocktail is then melted onto microwave-dried filters on a hot plate and the radio activity is counted in Microbia counter.

[3] = molecular target: T2, Alpha-2A adrenergic receptor (Homo sapiens) (UniProt P08913)
T2 sequence (whole entry): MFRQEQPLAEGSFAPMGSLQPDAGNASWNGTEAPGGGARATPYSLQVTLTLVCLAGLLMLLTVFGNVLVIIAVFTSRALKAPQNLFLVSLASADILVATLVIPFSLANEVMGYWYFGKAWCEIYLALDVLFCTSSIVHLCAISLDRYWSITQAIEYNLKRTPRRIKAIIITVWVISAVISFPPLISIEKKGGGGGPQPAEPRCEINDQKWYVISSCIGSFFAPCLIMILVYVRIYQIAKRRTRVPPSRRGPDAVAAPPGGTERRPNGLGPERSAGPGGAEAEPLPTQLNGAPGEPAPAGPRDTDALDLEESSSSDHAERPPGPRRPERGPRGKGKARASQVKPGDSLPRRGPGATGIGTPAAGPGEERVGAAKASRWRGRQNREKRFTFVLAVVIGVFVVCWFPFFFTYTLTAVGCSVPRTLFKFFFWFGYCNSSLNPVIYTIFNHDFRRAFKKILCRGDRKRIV
Description: PDSP Primary Binding target: ADRA2A - Compounds are tested at 10 uM concentration, plate are incubated at room temperature in the dark for 90 minutes. Reaction are stopped by vacuum filtration onto 0.3% polyethyleneimine soaked filter mats using Filtermate harvester. Scintilation cocktail is then melted onto microwave-dried filters on a hot plate and the radio activity is counted in Microbia counter.

[4] = molecular target: T3, Alpha-1D adrenergic receptor (Homo sapiens) (UniProt P25100)
T3 sequence (whole entry): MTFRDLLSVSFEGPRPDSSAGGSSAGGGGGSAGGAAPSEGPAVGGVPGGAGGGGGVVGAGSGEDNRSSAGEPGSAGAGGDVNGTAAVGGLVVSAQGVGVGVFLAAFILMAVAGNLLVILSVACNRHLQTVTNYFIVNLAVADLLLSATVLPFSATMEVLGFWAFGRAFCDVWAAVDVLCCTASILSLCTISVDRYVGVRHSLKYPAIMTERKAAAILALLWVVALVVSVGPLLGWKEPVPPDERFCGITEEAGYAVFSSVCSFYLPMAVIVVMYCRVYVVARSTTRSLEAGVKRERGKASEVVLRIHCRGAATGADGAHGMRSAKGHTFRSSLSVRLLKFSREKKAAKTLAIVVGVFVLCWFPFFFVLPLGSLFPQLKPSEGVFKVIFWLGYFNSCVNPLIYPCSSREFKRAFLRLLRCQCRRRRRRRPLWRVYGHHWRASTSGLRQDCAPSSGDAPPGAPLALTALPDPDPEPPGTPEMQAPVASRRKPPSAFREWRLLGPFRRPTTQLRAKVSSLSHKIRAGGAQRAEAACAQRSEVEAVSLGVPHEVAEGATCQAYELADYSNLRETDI
Description: PDSP Primary Binding target: ADRA1D - Compounds are tested at 10 uM concentration, plate are incubated at room temperature in the dark for 90 minutes. Reaction are stopped by vacuum filtration onto 0.3% polyethyleneimine soaked filter mats using Filtermate harvester. Scintilation cocktail is then melted onto microwave-dried filters on a hot plate and the radio activity is counted in Microbia counter.

[5] = molecular target: T4, Muscarinic acetylcholine receptor M5 (Homo sapiens) (UniProt P08912)
T4 sequence (whole entry): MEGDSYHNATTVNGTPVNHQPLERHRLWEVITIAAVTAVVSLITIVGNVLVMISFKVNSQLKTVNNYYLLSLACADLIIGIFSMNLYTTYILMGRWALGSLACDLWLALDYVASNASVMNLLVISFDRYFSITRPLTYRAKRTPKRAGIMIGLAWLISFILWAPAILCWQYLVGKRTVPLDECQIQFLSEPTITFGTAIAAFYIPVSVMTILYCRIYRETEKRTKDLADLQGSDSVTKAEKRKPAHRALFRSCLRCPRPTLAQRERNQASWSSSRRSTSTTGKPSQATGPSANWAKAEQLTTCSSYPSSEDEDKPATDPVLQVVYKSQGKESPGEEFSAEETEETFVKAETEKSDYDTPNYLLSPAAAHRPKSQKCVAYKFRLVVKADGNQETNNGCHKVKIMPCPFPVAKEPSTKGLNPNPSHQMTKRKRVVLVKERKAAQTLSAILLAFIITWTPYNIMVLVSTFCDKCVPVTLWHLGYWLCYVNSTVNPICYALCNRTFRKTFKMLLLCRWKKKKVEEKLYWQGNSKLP
Description: PDSP Primary Binding target: CHRM5 - Compounds are tested at 10 uM concentration, plate are incubated at room temperature in the dark for 90 minutes. Reaction are stopped by vacuum filtration onto 0.3% polyethyleneimine soaked filter mats using Filtermate harvester. Scintilation cocktail is then melted onto microwave-dried filters on a hot plate and the radio activity is counted in Microbia counter.

Sequence of Sodium-dependent serotonin transporter (Homo sapiens) (P31645 whole entry, looked up): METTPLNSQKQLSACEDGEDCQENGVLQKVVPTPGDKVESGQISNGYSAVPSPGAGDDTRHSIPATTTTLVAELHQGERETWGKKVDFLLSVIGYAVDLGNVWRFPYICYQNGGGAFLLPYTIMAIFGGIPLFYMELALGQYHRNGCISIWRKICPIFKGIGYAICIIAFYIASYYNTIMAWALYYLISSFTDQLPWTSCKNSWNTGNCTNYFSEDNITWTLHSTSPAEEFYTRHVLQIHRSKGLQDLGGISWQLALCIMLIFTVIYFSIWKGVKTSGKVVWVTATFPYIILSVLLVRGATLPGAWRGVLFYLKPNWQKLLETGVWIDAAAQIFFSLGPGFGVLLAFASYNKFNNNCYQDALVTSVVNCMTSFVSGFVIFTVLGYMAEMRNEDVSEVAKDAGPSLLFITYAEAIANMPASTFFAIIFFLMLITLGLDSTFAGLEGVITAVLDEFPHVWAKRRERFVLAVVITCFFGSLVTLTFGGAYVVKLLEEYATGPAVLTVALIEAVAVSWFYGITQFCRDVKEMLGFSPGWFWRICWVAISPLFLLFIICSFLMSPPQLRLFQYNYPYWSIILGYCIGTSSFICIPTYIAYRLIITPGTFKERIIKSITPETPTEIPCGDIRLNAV

Compound	inhibition [1] [%]	inhibition [2] [%]	inhibition [3] [%]	inhibition [4] [%]	inhibition [5] [%]
Cc1csc(NC(=O)c2cc(F)cc(Oc3cncnc3)c2)n1	21.2	–	–	–	–
Cc1c(C2=CCN(C(=O)N(C)C(C)C)CC2)nnn1-c1cccnc1F	–	8.19	–	–	–
Cc1nnn(-c2ccc(-c3ccc(C4(C(=O)O)CC4)cc3)cc2)c1NC(=O)O[C@H](C)c1ccccc1	–	–	0.57	23.9	–
COC1CCN(c2cccc(-c3cc(NC(C)=O)nc(-n4nc(C)cc4C)n3)n2)CC1	–	21.1	–	17.4	-2.53
